Data taken from PubChem BioAssay AID248 (DTP/NCI, 2004).
Several values for one entry are separate records, joined by “and”; a condition that tells them apart may be missing. Equal values may be shown once. Toxic doses and inconclusive results are not listed. Cut-off read from the data, not from the text of the source: active = T/C of 150% or more; inactive = T/C below 125%.

Tested on: L1210 leukemia ip in BDF1 mice, survival T/C
Assay: NCI In Vivo Anticancer Drug Screen. Data for tumor model L1210 Leukemia (intraperitoneal) in B6D2F1 (BDF1) mice
Settings: endpoint: mean survival time, higher = longer survival
How it was run: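 Read-out is survival time, reported as the treated-group measurement over the vehicle-control measurement.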

[1] = dose: 50.0 mg/kg/injection, schedule: Q01DX001 (ip), vehicle: saline
[2] = dose: 100.0 mg/kg/injection, schedule: Q01DX001 (ip), vehicle: saline
[3] = dose: 200.0 mg/kg/injection, schedule: Q01DX001 (ip), vehicle: saline
[4] = dose: 100.0 mg/kg/injection, schedule: Q04DX002 (ip), vehicle: Klucel (hydroxypropylcellulose) (HPC)
[5] = dose: 200.0 mg/kg/injection, schedule: Q04DX002 (ip), vehicle: Klucel (hydroxypropylcellulose) (HPC)
[6] = dose: 400.0 mg/kg/injection, schedule: Q04DX002 (ip), vehicle: Klucel (hydroxypropylcellulose) (HPC)
[7] = dose: 100.0 mg/kg/injection, schedule: Q01DX009 (ip), vehicle: saline with Tween-80
[8] = dose: 100.0 mg/kg/injection, schedule: Q04DX003 (ip), vehicle: saline with Tween-80
[9] = dose: 200.0 mg/kg/injection, schedule: Q01DX009 (ip), vehicle: saline with Tween-80
[10] = dose: 400.0 mg/kg/injection, schedule: Q01DX001 (ip), vehicle: saline
[11] = dose: 25.0 mg/kg/injection, schedule: Q04DX003 (ip), vehicle: saline
[12] = dose: 50.0 mg/kg/injection, schedule: Q04DX003 (ip), vehicle: saline
[13] = dose: 50.0 mg/kg/injection, schedule: Q01DX009 (ip), vehicle: saline with Tween-80

Measured: T/C

Fc1ccc(NC(=S)Nc2ccc(F)cc2)cc1
inactive: dose: 15.0 mg/kg/injection, schedule: Q01DX Z (ip), vehicle: carboxymethylcellulose (CMC) 98 % of control | dose: 30.0 mg/kg/injection, schedule: Q01DX Z (ip), vehicle: carboxymethylcellulose (CMC) 101 % of control | [1] 117 % of control | dose: 60.0 mg/kg/injection, schedule: Q01DX Z (ip), vehicle: carboxymethylcellulose (CMC) 101 % of control and 104 % of control | [2] 113 % of control | dose: 120.0 mg/kg/injection, schedule: Q01DX Z (ip), vehicle: carboxymethylcellulose (CMC) 101 % of control and 106 % of control | [3] 120 % of control | dose: 240.0 mg/kg/injection, schedule: Q01DX Z (ip), vehicle: carboxymethylcellulose (CMC) 100 % of control | dose: 240.0 mg/kg/injection, schedule: Q01DX Z (oral), vehicle: carboxymethylcellulose (CMC) 95 % of control | dose: 480.0 mg/kg/injection, schedule: Q01DX Z (ip), vehicle: carboxymethylcellulose (CMC) 106 % of control | dose: 480.0 mg/kg/injection, schedule: Q01DX Z (oral), vehicle: carboxymethylcellulose (CMC) 104 % of control | dose: 960.0 mg/kg/injection, schedule: Q01DX Z (oral), vehicle: carboxymethylcellulose (CMC) 107 % of control | dose: 1920.0 mg/kg/injection, schedule: Q01DX Z (oral), vehicle: carboxymethylcellulose (CMC) 100 % of control

CS(=O)(=O)Nc1ccccc1-c1nc2ccccc2c(=O)o1
inactive: dose: 50.0 mg/kg/injection, schedule: Q04DX002 (ip), vehicle: Klucel (hydroxypropylcellulose) (HPC) 98 % of control | [4] 98 % of control | [5] 98 % of control | [6] 92 % of control

COc1ccc(-c2ccc(OC)cc2OC)c(OC)c1
inactive: dose: 100.0 mg/kg/injection, schedule: Q01DX001 (ip), vehicle: carboxymethylcellulose (CMC) 112 % of control | dose: 200.0 mg/kg/injection, schedule: Q01DX001 (ip), vehicle: carboxymethylcellulose (CMC) 107 % of control | dose: 400.0 mg/kg/injection, schedule: Q01DX001 (ip), vehicle: carboxymethylcellulose (CMC) 112 % of control

[Cl][Pt+2][Cl].[NH-]CC(=O)O.[NH-]CC(=O)O
inactive: dose: 9.7 mg/kg/injection, schedule: Q01DX009 (ip), vehicle: saline 86 % of control | dose: 19.4 mg/kg/injection, schedule: Q01DX001 (ip), vehicle: saline 100 % of control | dose: 19.4 mg/kg/injection, schedule: Q01DX009 (ip), vehicle: saline 89 % of control | dose: 38.8 mg/kg/injection, schedule: Q01DX001 (ip), vehicle: saline 105 % of control | dose: 38.8 mg/kg/injection, schedule: Q01DX009 (ip), vehicle: saline 95 % of control | dose: 77.5 mg/kg/injection, schedule: Q01DX001 (ip), vehicle: saline 109 % of control | dose: 77.5 mg/kg/injection, schedule: Q01DX009 (ip), vehicle: saline 100 % of control | dose: 155.0 mg/kg/injection, schedule: Q01DX001 (ip), vehicle: saline 98 % of control

O=C(Nc1ccc(C(=O)O)cc1)Nc1cccc(Cl)c1
inactive: dose: 25.0 mg/kg/injection, schedule: Q04DX002 (ip), vehicle: saline 92 % of control | dose: 50.0 mg/kg/injection, schedule: Q04DX002 (ip), vehicle: saline 95 % of control | dose: 100.0 mg/kg/injection, schedule: Q04DX002 (ip), vehicle: saline 100 % of control and 89 % of control

Clc1ccc(CNc2ccccn2)s1
inactive: dose: 150.0 mg/kg/injection, schedule: Q01DX001 (ip), vehicle: saline 88 % of control

O=C(Oc1ccc2ccc(=O)oc2c1)N(CCCl)CCCl
inactive: dose: 50.0 mg/kg/injection, schedule: Q01DX009 (ip), vehicle: Klucel (hydroxypropylcellulose) (HPC) 97 % of control | dose: 100.0 mg/kg/injection, schedule: Q01DX009 (ip), vehicle: Klucel (hydroxypropylcellulose) (HPC) 90 % of control | dose: 200.0 mg/kg/injection, schedule: Q01DX009 (ip), vehicle: Klucel (hydroxypropylcellulose) (HPC) 101 % of control

CCc1ccc(NC(=O)c2ccc(Cl)cc2Cl)cc1
inactive: [4] 97 % of control | [5] 87 % of control | [6] 91 % of control

COc1ccc2c3c1OC1C(O)C=CC4C(C2)N(C)CCC341 (stereo not given)
inactive: [2] 98 % of control

Cc1ccc(S(=O)(=O)N/N=C/c2cccs2)cc1
inactive: [7] 90 % of control | [8] 98 % of control | [9] 88 % of control | dose: 200.0 mg/kg/injection, schedule: Q04DX003 (ip), vehicle: saline with Tween-80 98 % of control | dose: 400.0 mg/kg/injection, schedule: Q01DX009 (ip), vehicle: saline with Tween-80 91 % of control | dose: 400.0 mg/kg/injection, schedule: Q04DX003 (ip), vehicle: saline with Tween-80 109 % of control

ClC(Cl)(Cl)C1OCCCO1
inactive: [2] 97 % of control | [3] 107 % of control | [10] 103 % of control

Cc1ccc(S(=O)(=O)OCCN(CCO)c2cn(C(c3ccccc3)(c3ccccc3)c3ccccc3)c(=O)n(C(c3ccccc3)(c3ccccc3)c3ccccc3)c2=O)cc1
inactive: [1] 93 % of control | [2] 93 % of control | [3] 93 % of control

CN(C)CCN1C(=O)c2ccccc2N(C)c2ccccc21
inactive: [11] 96 % of control | [12] 96 % of control

CCC1CC[N-]CC1.CCC1CC[N-]CC1.[Cl][Pt+2]([Cl])([Cl])[Cl]
inactive: dose: 6.25 mg/kg/injection, schedule: Q01DX009 (ip), vehicle: saline 103 % of control | dose: 12.5 mg/kg/injection, schedule: Q01DX009 (ip), vehicle: saline 110 % of control | dose: 12.5 mg/kg/injection, schedule: Q04DX003 (ip), vehicle: saline 97 % of control | dose: 25.0 mg/kg/injection, schedule: Q01DX009 (ip), vehicle: saline 86 % of control | [11] 95 % of control | [12] 104 % of control

C[N+](C)(C)CCC[N+]1(C)CC2CC=CCC2C1 (stereo not given)
inactive: dose: 100.0 mg/kg/injection, schedule: Q01DX Z (ip), vehicle: saline 97 % of control | dose: 145.0 mg/kg/injection, schedule: Q01DX Z (ip), vehicle: saline 97 % of control | dose: 220.0 mg/kg/injection, schedule: Q01DX Z (ip), vehicle: saline 87 % of control

COc1ccccc1CN1CCCN(Cc2ccccc2OC)C1c1cc(Cl)cc(Cl)c1O
inactive: [1] 98 % of control | [2] 111 % of control | [3] 104 % of control | [10] 98 % of control

ClCCCCOCBr
inactive: [13] 97 % of control | [7] 104 % of control | [9] 95 % of control

C1=CCOCOC1
inactive: dose: 12.5 mg/kg/injection, schedule: Q01DX009 (ip), vehicle: saline with Tween-80 97 % of control | dose: 25.0 mg/kg/injection, schedule: Q01DX009 (ip), vehicle: saline with Tween-80 94 % of control | [13] 97 % of control | [7] 113 % of control

CCC(C(=O)NC(=O)NOC)c1ccccc1 (stereo not given)
inactive: dose: 100.0 mg/kg/injection, schedule: Q01DX Z (ip), vehicle: methylcellulose (MC) 95 % of control | dose: 200.0 mg/kg/injection, schedule: Q01DX Z (ip), vehicle: methylcellulose (MC) 114 % of control | dose: 400.0 mg/kg/injection, schedule: Q01DX Z (ip), vehicle: methylcellulose (MC) 116 % of control

COC1=C(N2CC2)C(=O)c2ccccc2C1=O
inactive: dose: 25.0 mg/kg/injection, schedule: Q04DX003 (ip), vehicle: saline with Tween-80 109 % of control | dose: 50.0 mg/kg/injection, schedule: Q04DX003 (ip), vehicle: saline with Tween-80 101 % of control | [8] 101 % of control and 108 % of control
